Test results taken from patent US10370378B2, “Treatment of sleep disorders” (Evotec International GmbH, priority 2007, dated 2019).
Entries after “also recorded” stand apart in the source; their conditions may differ. Marks after values point to notes of the source that are not given here.

Legend:
α1β2γ2 GABAA receptors = target: T1, α1β2γ2 GABAA receptors (Rattus norvegicus, UniProt P18508+P62813); test: Stimulation of currents elicited by GABA (EC3-5), two-electrode voltage clamp, receptors expressed in Xenopus oocytes; type: cell-based
T1 construct: expressed in transfected cells; host or cells: Xenopus laevis oocytes, cRNA microinjection
T1 sequence (P62813 28-455): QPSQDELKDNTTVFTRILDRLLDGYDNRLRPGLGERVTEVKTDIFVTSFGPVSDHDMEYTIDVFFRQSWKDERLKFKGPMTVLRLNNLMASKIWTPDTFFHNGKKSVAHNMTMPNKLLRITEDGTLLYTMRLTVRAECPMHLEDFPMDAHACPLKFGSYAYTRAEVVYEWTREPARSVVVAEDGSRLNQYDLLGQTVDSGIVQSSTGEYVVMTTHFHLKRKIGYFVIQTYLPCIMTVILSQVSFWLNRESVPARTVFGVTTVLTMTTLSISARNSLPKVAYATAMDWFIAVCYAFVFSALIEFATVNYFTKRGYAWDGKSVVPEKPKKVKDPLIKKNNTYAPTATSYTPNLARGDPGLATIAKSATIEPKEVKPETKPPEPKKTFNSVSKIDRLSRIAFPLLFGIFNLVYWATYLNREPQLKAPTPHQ
T1 sequence (P63138 25-474 partner limits assumed): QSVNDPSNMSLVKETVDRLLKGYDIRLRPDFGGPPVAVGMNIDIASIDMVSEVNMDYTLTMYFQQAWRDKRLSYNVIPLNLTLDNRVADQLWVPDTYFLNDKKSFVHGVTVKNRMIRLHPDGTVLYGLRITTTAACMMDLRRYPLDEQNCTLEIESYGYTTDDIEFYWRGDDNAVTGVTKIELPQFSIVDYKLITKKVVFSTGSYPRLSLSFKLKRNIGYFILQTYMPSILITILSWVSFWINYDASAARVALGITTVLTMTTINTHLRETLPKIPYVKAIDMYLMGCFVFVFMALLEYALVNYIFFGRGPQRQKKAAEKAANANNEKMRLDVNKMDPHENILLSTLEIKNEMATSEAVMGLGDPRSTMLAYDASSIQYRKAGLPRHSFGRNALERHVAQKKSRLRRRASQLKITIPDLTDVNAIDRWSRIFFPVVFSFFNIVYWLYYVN
T1 sequence (P18508 39-466): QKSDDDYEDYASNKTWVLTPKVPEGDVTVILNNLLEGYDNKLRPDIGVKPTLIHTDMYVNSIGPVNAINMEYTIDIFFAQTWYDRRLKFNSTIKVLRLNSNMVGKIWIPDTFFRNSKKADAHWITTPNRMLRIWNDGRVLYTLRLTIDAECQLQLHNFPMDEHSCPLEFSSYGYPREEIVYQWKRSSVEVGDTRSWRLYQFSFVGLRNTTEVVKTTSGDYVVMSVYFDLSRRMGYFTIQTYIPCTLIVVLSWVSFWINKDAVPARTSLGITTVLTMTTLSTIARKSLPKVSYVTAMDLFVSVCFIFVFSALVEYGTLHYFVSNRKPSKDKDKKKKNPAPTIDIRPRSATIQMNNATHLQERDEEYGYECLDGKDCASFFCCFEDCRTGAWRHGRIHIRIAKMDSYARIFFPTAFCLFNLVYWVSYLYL
Text: 7-Chloro-3-(5-dimethylaminomethyl-[1,2,4]oxadiazol-3-yl)-5-methyl-4,5-dihydro-imidazol[1,5,-a][1,4]benzodiazepine-6-one was used to test the effects of the compound of formula (II): […]
Similar procedures were chosen as for the investigation of other GABAA receptor subunit specific substances (e.g., Baur et al., 2005; Mol. Pharmacol. 68, 787-792).
Lobes of the ovary containing the follicles were obtained by surgical procedures from female Xenopus laevis. Follicles were singled out using a platinum loop. Fifty nL of cRNA solution at a ratio of αx:β2:γ2 of 1:1:5 (3.3-10 nM αx (x=1, 2, 3, 5); 3.3-10 nM β2; 16.7-50 nM γ2) (Boileau et al., 2002; Neuropharmacology 43, 695-700) were microinjected into Xenopus follicles. Several hours after microinjection the follicles were freed of follicular layers and adhering connective tissue by a collagenase/hypertonic shock procedure (Sigel, 1987; J. Physiol. (Land) 386, 73-90). Oocytes were kept at constant 18° C. until measurement (1-4 days) in a modified Barth solution (88 mM NaCl, 1 mM KCl, 2.4 mM NaHCO3, 10 mM Hepes-NaOH (pH 7.5), 0.82 mM MgSO4×7H2O, 0.34 mM Ca(NO3)2×4H2O, 0.41 mM CaCl2×2H2O, 100 U Penicillin/mL, 100 μg Streptomycin/mL, sterile filtered).
Currents were measured using a home-built amplifier in combination with a xy-recorder or were digitized using a MacLab/200 (AD Instruments) and stored on a computer. Xenopus oocytes were voltage clamped using the two-electrode voltage clamp technique (electrode resistance about 0.8 MΩ) at −80 mV. The medium contained 90 mM NaCl, 1 mM KCl, 1 mM MgCl2, 1 mM CaCl2, 10 mM Na-Hepes (pH 7.4) and 0.5% DMSO.
GABA was applied for 20-50 seconds without or in combination with other drugs and a washout period of 4 minutes was allowed to ensure full recovery from desensitization, which was experimentally determined. The perfusion solution (6 mL/min) was applied through a glass capillary with an inner diameter of 1.35 mm, the mouth of which was placed about 0.4 mm from the surface of the oocyte. The rate of solution change under our conditions has been estimated 70% within less than 0.5 s (Sigel et al., 1990; Neuron 5, 703-711). The entire perfusion system and the assay chamber were cleaned between drug applications by washing with DMSO.
Data is given as mean±SD, except in the figures where data is shown for clarity as mean±SEM. Current stimulation was calculated as follows: stimulation (%)=((I(GABA+modulator)−I(GABA))/I(GABA))×100%, where I is the current amplitude. Where indicated, the stimulation was standardized to the stimulation by 1 μM diazepam (100%). To obtain FIGS. 1-4, values for current stimulation obtained at a given concentration of modulator at a given subunit combination were averaged. The data points were fitted with the equation stimulation=efficacy/(1+(potency/concentration of modulator)). The values given in the Tables (Summary) are obtained by fitting individual curves and subsequently averaging efficacy and potency. […]
GABA was then applied in combination with various concentrations of the compound of formula (II) between 0.3 nM and 3,000 nM to produce a cumulative concentration response curve. […] In each batch of oocytes the stimulation by 1 μM diazepam was determined in five oocytes, extent of stimulation averaged and defined as 100%. Where indicated, stimulation by the compound of formula (II) in each batch of oocytes was expressed as a percentage of this value in the corresponding batch. […]

[1] = tested on: healthy volunteers subjected to road traffic noise; test: Example 1: placebo controlled cross-over study, road noise model; type: in vivo, human
Description: A placebo controlled, randomized, double-blind, cross-over study of the effects of the compound of formula (II) was conducted using a road noise model using 12 healthy volunteers. Specifically, the volunteers were subjected to road traffic noise to imitate the effects of insomnia, and the medication was orally administered 5 minutes before the 11 pm bed time in 1.0 mg, 1.5 mg, 2 mg and 2.5 mg doses in the form of a hard gelatine capsule containing the powdered compound of formula (II) in free base form. Measurements were then taken at 8, 10 and 12 hours after dosing.

[2] = Example 2: single and repeat dose pharmacokinetic, safety and pharmacodynamic study; type: in vivo, human; details: healthy volunteers, oral
Description: A single and repeat dose pharmacokinetic safety and pharmacodynamic study of the effects of the compound of formula (II) was conducted using healthy volunteers. The compound of formula (II) in free base form was administered orally in 1 mg, 1.5 mg, 2 mg and 2.5 mg doses via a hard gelatine capsule containing the compound in powder form.

[3] = Pharmacokinetic profile in non-elderly adults and the elderly (FIG. 16); type: in vivo, human; details: free base
Text: FIG. 16 is a chart showing an exemplary pharmacokinetic (PK) profile of the compound of formula (II) (free base) in both the non-elderly adults and the elderly. Mean dose adjusted plasma concentrations of the compound of formula (II) (free base) in non-elderly (open circle) and elderly males (open square) and M1 (active metabolite of the compound of formula (II) (free base)) in non-elderly adults (filled circle) and the elderly (filled square).
As a result, the inventors determined that the same or similar doses of the compound of formula (II), which are effective for non-elderly adults (18-64 years of age), could be effective for the elderly.

[4] = 1.5, 2.0 & 2.5 mg oral, objective
[5] = all 4 doses (1.0, 1.5, 2, 2.5 mg)
[6] = all 4 doses, objective residual effects

SMILES: CN(C)Cc1nc(-c2ncn3c2CN(C)C(=O)c2c(Cl)cccc2-3)no1 [compound of formula (II), 7-chloro-3-(5-dimethylaminomethyl-[1,2,4]oxadiazol-3-yl)-5-methyl-4,5-dihydro-imidazo[1,5-a][1,4]benzodiazepine-6-one]
- Intrinsic activity / type of allosteric modulation (α1β2γ2 GABAA receptors; GABAA receptor benzodiazepine site): partial agonist; also recorded: partial positive allosteric modulator
- Receptor subtype preference in comparison to α5β2γ2, α3β2γ2 and α2β2γ2 (α1β2γ2 GABAA receptors; concentrations <100 nM): preference for α1β2γ2 GABAA receptors
- Subjective assessment (LARS): Coordination ([1]; 2.5 mg): No impairment
- Subjective assessment (LARS): Mood ([1]; 2.5 mg): No impairment
- Subjective assessment (LARS): Sedation ([1]; 2.5 mg): No impairment
- WASO, 2nd half (hrs 5-8) [1, 4]: Significantly reduced
- WASO, full night (hrs 0-8) [1, 4]: Significantly reduced
- Sleep Efficiency Index ([1]; 2.0 & 2.5 mg oral, objective): Significantly improved
- TST ([1]; 2.0 & 2.5 mg oral, objective): Significantly improved
- Performance on any of the cognitive or psychomotor tests ([1]; 8 to 12 hours after dose, data corrected for multiple comparisons): no impairment
- Choice Reaction Time - Motor Component ([1]; all 4 doses): No effect (all 4 doses)
- Critical Flicker Fusion Test ([1]; all 4 doses): No effect (all 4 doses)
- Word Recall - delayed (WRd) ([1]; all 4 doses): No effect (all 4 doses)
- SWS (% and duration) [1, 5]: Significantly increased
- Stage IV Sleep (% and duration) [1, 5]: Significantly increased
- Leeds Sleep Evaluation Questionnaire: Getting to sleep ([1]; all 4 doses, model considered nondiscriminant for sleep onset): (No effect to all 4 doses)*
- Rapid Visual Information Processing [1, 6]: No effect (all 4 doses)
- Sustained Attention to Response (SART) [1, 6]: No effect (all 4 doses)
- Leeds Sleep Evaluation Questionnaire: Early morning behaviour (clumsiness & tiredness) ([1]; all 4 doses, subjective): No effect (all 4 doses)
- Leeds Sleep Evaluation Questionnaire: Ease of awakening ([1]; all 4 doses, subjective): No effect (all 4 doses)
- Sternberg Memory Task (STM) ([1]; at 8 or 12 h, all 4 doses): No effect at 8 or 12 h (all 4
- Continuous Tracking Task - reaction time ([1]; at 10 or 12 h, all 4 doses): No effect at 10 or 12 h (all
- Continuous Tracking Task - deviation ([1]; at 8 h, all 4 doses): No effect at 8 h (all 4
- effect of food on the extent of absorption [2]: little or no effect
- pharmacokinetic profile on day 14 after repeat dosing compared to day 1 [2]: no significant differences
- pharmacokinetic (PK) profile in non-elderly versus elderly [3]: similar
